Assay results as given in PubChem BioAssay (NCI).
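Method: 48-hour compound exposure of cells in 96-well plates, five concentrations, linear interpolation of endpoints. GI50 is the concentration that inhibits growth by half. TGI is the concentration that stops growth completely.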

System: MDA-MB-468 breast
Experiment: growth of human tumour cells (NCI), 48 h

Compound	GI50	TGI
C=C(C)[C@@H]1CC[C@]2(C)[C@H](C=CC3=C4C[C@@](C)(CO)CC[C@]4(C)CC[C@]32C)[C@@]1(C)CCCN	1580 nM	3.2 µM
CCCCCc1c(C)[nH]c(/C=c2\[nH]/c(=C3/C=c4ccccc4=N3)cc2OC)c1C	59.1 nM	1.63 µM
C=C1C(=O)OC2CC3(C)OC3C3OC3C3=CC(OC3=O)C12 (centres undefined)	1580 nM	3.28 µM
CS[C@@]1(C(=O)Nc2ccc3[nH]nc(-c4ccc(OC(C)C)nc4)c3c2)CCN(CC(=O)N2CC=C(c3ccc(-c4ncn(C)n4)cc3)CC2)C1	> 100000 nM	> 100 µM
C[C@@H](Oc1cc(-c2cnn(C3CC4(CCCNC4)C3)c2)cnc1N)c1c(Cl)ccc(F)c1Cl (some centres undefined)	1090 nM	2.49 µM
Cc1cc2nc3c4ccccc4n(CCN(C)C)c3nc2cc1C	1320 nM	3.62 µM
O=[N+]([O-])c1ccc(-c2ccccc2)c([As](=O)(O)O)c1	11800 nM	28.1 µM
C/C(=N\Nc1cccc(Cl)n1)c1ccccn1	764 nM	2.42 µM
N#CC[C@H](C1CCCC1)n1cc(-c2ncnc3[nH]ccc23)cn1	23200 nM	78.8 µM
COc1cccc(Nc2nccc(Nc3ccc4[nH]ncc4c3)n2)c1	1250 nM	2.77 µM
C=C=[CH][Sn]([c]1ccccc1)([c]1ccccc1)[c]1ccccc1	1340 nM	2.66 µM
COc1ccc2c(c1)Oc1nc(N)c(C#N)c(N)c1C2Sc1ccc(C)cc1 (centres undefined)	1200 nM	2.6 µM
COc1ccc(-n2sc(=O)n(Cc3ccc(COC(=O)C(C)c4ccc(CC(C)C)cc4)cc3)c2=O)cc1 (centres undefined)	925 nM	2.13 µM
CN(NC(=O)CC(=O)NN(C)C(=S)c1ccc(Cl)cc1)C(=S)c1ccc(Cl)cc1	23900 nM	> 100 µM
N#CSCC(=O)c1ccc(Cl)cc1	2280 nM	10.4 µM
CCOC(=O)C(Cc1ccc(OC)cc1)C(=O)OCC	4170 nM	20.6 µM
CC(=O)OCC(=O)C1(O)C(C)CC2C3C=C(C)C4=Cc5c(cnn5-c5ccccc5)CC4(C)C3C(O)CC21C (centres undefined)	2030 nM	4.33 µM
Brc1ccc(Br)nn1	1140 nM	2.47 µM
CCCCCCC1N=C(N)N=C(N)N1c1ccc(Cl)cc1 (centres undefined)	1350 nM	4.72 µM
CCc1ccccc1-n1c(N)c(C#N)c(-c2ccc(OC)c(OC)c2)c(C#N)c1=O	37600 nM	> 100 µM
CCN1C(=O)N(CC)C2C1NN=c1s/c(=C\c3ccccc3)c(=O)n12 (centres undefined)	86.7 nM	> 100 µM
COC(=O)Nc1nc2ccc(Sc3ccccc3)cc2[nH]1	165 nM	1.53 µM
CN1CCN(c2ccc3nc4c(nc3c2C(F)(F)F)C(=O)c2ncccc2C4=O)CC1	1060 nM	2.58 µM
CCS/C(Nc1ccccc1)=C(\C#N)C(=O)N/N=C/c1ccc(Cl)cc1Cl	2600 nM	9.19 µM

Compound	GI50	TGI
C[C@@H]1CN2[C@H]3[C@@H]1CC[C@]31CCC(=O)O[C@]1(C)[C@@H]1CC[C@H]3CCC=C3[C@@H]12	> 70000 nM	> 70 µM
O=C(CC1(O)C(=O)Nc2c(Cl)ccc(Cl)c21)c1ccc(C2CC2)cc1 (centres undefined)	297 nM	10.2 µM
ClC1=C(Cl)C(Cl)=C(Cl)C1=Cc1ccc(Cl)cc1	251 nM	0.869 µM
COc1cc(/C=C/C(=O)c2ccc(Nc3nc(Nc4ccccc4)nc(Nc4ccc(Cl)cc4)n3)cc2)cc(OC)c1OC	11700 nM	> 32.5 µM
CCOc1cc(/C=N\NC(=O)N/N=C/c2ccc(O)c(OCC)c2)ccc1O	1440 nM	7.27 µM
CN(C)CCOc1nc2ccccc2c2c1-c1ccc(Cl)cc1C2=O	606 nM	1.97 µM
COc1ccc(C2C3=C(COC3=O)N(CCO)c3cc4c(cc32)OCCO4)cc1OC (centres undefined)	786 nM	5.19 µM
CCN(CC)c1ccc2nc3c4ccccc4c(=NC(=O)c4ccccc4-c4c5ccc(N(CC)CC)cc5[o+]c5cc(N(CC)CC)ccc45)cc-3oc2c1	1010 nM	2.43 µM
O=c1cc(-c2ccccc2Cl)[nH]c2cc3c(cc12)OCO3	13900 nM	> 100 µM
CCNCCNc1cc(-c2cccc(C(F)(F)F)c2)c(C#N)c2nc3ccccc3n12	1340 nM	2.84 µM
CC(C)N(C[C@H]1O[C@@H](n2cnc3c(N)ncnc32)[C@H](O)[C@@H]1O)C1CC(CCc2nc3ccc(C(C)(C)C)cc3[nH]2)C1 (some centres undefined)	18400 nM	> 72.6 µM
CON	> 100000 nM	> 100 µM
CC[C@H](C)[C@H](NC(=O)C12CC(NC(C)=O)(C1)C2)C(=O)N(C)[C@H](C[C@@H](OC(C)=O)c1nc(C(=O)N[C@@H](Cc2ccccc2)C[C@H](C)C(=O)OC)cs1)C(C)C	58.4 nM	> 9.3 µM
CNCCOc1nc2c3cnccc3cc(-c3cc(OC)c(OC)c(OC)c3)c2c2ccncc12	27.8 nM	0.106 µM
O=C(NO)c1cnc(N2CCN(S(=O)(=O)c3ccc4ccccc4c3)CC2)nc1	74.3 nM	6.5 µM
Oc1[nH]c2ccc(Cl)cc2c1/C=c1/ccc2c(c1)N=C(c1cc(F)cc(F)c1)N=2	3460 nM	13.2 µM
COc1ccc(NC(=O)O[C@H]2[C@H](O[C@H]3[C@@H](O)COC(O[C@H]4C[C@H]5[C@@H]6CC=C7C[C@@H](O)CC[C@]7(C)[C@H]6CC[C@]5(C)[C@H]4[C@H](C)C(=O)CCC(C)C)[C@@H]3OC(C)=O)OC[C@@H](O)[C@@H]2O)cc1 (some centres undefined)	< 10 nM	0.63 µM
CC(=O)N[C@@H](Cc1ccc(OP(=O)(O)O)cc1)C(=O)N[C@H]1CCC(=O)N2CCC[C@@H](C(=O)NCc3ccc(O)cc3)N2C1=O	> 25000 nM	> 25 µM
COc1cnc2c(c1)C(=O)c1c-2n(CCCN2CCN(CCO)CC2)c(=O)c2cc([N+](=O)[O-])ccc12	2470 nM	7.54 µM
O=C(Nc1ccc(S(=O)(=O)NC2CCCCCC2)cc1)C(c1ccccc1)S(=O)(=O)c1ccc(F)cc1 (centres undefined)	863 nM	3.23 µM
N#Cc1c(Oc2ccc(F)c(NC(=O)Cc3cccc(C(F)(F)F)c3)c2)ccc2nc(NC(=O)C3CC3)sc12	3980 nM	> 100 µM
COc1cc(C2C(C#N)=C(N)Oc3cc4c(cc32)OCO4)cc2c1OCO2 (centres undefined)	112 nM	0.836 µM
Cc1cc2c(C(C)C)c(O)c(O)c(C=O)c2c(O)c1-c1c(C)cc2c(C(C)C)c(O)c(O)c(C=O)c2c1O (tested in a mixture with another compound)	1010 nM	3.75 µM
